Here are results for 2 molecules from patent US20250332154A1, “USE OF NAPHTHOQUINE PHOSPHATE IN PREPARATION OF A MEDICAMENT FOR TREATING AUTOIMMUNE DISEASES” (SHANGHAI PHARMACEUTICALS INDUSTRY CO., LTD, priority 2022, published 2025).

The test system of data set [1] is mouse whole spleen lymphocytes (ConA-induced T cell activation and proliferation). The data set is described as follows: ConA-induced lymphocyte proliferation assay (3H-thymidine). It is filed as cell-based. As to conditions: for IC50: ConA 1 μg/ml, 48 hours, 3H-thymidine, read-out: ConA IC50. As for the experimental part:
BALB/c mice were sacrificed by cervical dislocation, and spleens were aseptically excised to prepare whole spleen lymphocytes. The cells were adjusted to the required concentration.
A suspension of mouse spleen lymphocytes was inoculated into a 96-well plate at 5×10^5/well, and ConA (final concentration: 1 μg/ml) or LPS (final concentration: 10 μg/ml) and the above 10 concentration gradients of the compound were added. Corresponding cell control wells without ConA and LPS, as well as medicament-free stimulated control wells, were set up. The cells were cultured in a 37° C., 5% CO2 incubator for 48 hours. Eight hours before the end of the culture, ^3H-thymidine was added, and the culture continued until the end of the experiment (i.e., the aforementioned 48 hours). The cells were collected onto glass fiber membranes using a cell collector.
ConA and LPS, as mitogens, stimulated proliferation and differentiation of T and B lymphocytes, respectively. This process is similar to the activation process of lymphocytes in vivo. Therefore, mitogen-induced lymphocyte proliferation is commonly used as an indicator to evaluate functionality of lymphocytes.

The subject of a further data set is IgM. Kind of data set: IgM secretion by TLRs-L-stimulated mouse whole spleen lymphocytes (ELISA). As to conditions: Lymphocyte, 120 h. It is filed as cell-based. As for the experimental part: (§1) BALB/c mice were sacrificed by cervical dislocation, and spleens were aseptically excised to prepare whole spleen lymphocytes. The cells were adjusted to 5×10^6 cells/ml. Hydroxychloroquine sulfate was diluted with a 3-fold gradient into 3 concentrations starting from 30 μM: 30, 10 and 3 μM; naphthoquine phosphate was diluted with a 3-fold gradient into 3 concentrations starting from 10 μM: 10, 3 and 1 μM.
Mouse spleen lymphocytes were inoculated into a 96-well plate at 100 μl/well, and the stimulant TLR4-L (final concentration: 10 μg/ml), TLR7-L (final concentration: 5 μg/ml) or TLR9-L (final concentration: 1 μM) and the compounds diluted with the above concentration gradients were added. A corresponding stimulation control and a cell control (without stimulation) were set up. The cells were cultured in a 37° C., 5% CO2 incubator for 120 hours. After the end of the culture, the cell culture supernatants were collected, and the levels of IgG and IgM were measured by ELISA.
For orientation: An ELISA detects its analyte on a solid surface through an enzyme-linked reagent.

The nature of data set [2]: Non-specific cytotoxicity assay (MTT), RAW264.7. It is filed as cell-based, mouse. As to conditions: mouse, RAW264.7 cells. As for the experimental part:
RAW264.7 cells were inoculated into a 96-well plate at 1×10^5/well and allowed to adhere to the wall for 6 hours in a 37° C., 5% CO2 incubator. […] A corresponding solvent control (cell control) and a culture medium background control (blank control) were set up. The cells were cultured in a 37° C., 5% CO2 incubator for 48 hours. Fifteen minutes before the end of the culture, 20 μl of 5 mg/ml MTT was added. At the end of the culture, the supernatant was aspirated and discarded, 200 μl DMSO was added to dissolve the crystals.

A short description of data set [3]: Non-specific cytotoxicity assay (MTT), mouse spleen lymphocytes. It is filed as cell-based. As to conditions: BALB/c, mouse, mouse whole spleen lymphocytes. The method, then:
BALB/c mice were sacrificed by cervical dislocation, and spleens were aseptically excised to prepare whole spleen lymphocytes. The cells were adjusted to the required concentration. The compound concentrations started at 250 μM and was diluted with a 4-fold gradient to obtain 10 concentrations: 250, 62.5, 15.625, 3.906, 0.977, 0.244, 0.061, 0.015, 0.004 and 0.001 μM.
A suspension of mouse spleen lymphocytes was inoculated into a 96-well plate at 8×10^5/well, and the above 10 concentration gradients of the compound were added. A corresponding cell control (i.e. spleen lymphocyte culture system without compound) and a RPMI 1640 culture medium background control (blank culture medium control) were set up. The cells were cultured in a 37° C., 5% CO2 incubator for 48 hours. Four hours before the end of the culture, 20 μl of 5 mg/ml MTT solution was added, and the reaction continued until the end of the culture (i.e. the aforementioned 48 hours). The supernatant was aspirated and discarded, 200 μl DMSO was added to each well to dissolve the crystals. […]. The absorbance value was measured at […] with a microplate reader (Spectra Max 190, Molecular Devices).

A further data set has as its system IL-1β. The data set is described as follows: IL-1β production by LPS-induced RAW264.7 cells (ELISA). It is filed as cell-based, mouse. As to conditions: for IC50: Mus musculus, LPS 10 μg/ml, RAW264.7, read-out: IB-1β IC50; for production of LPS-induced IL-1β: RAW264.7, in words. The method, then: RAW264.7 cells were inoculated into a 96-well plate at 1×10^5/well and allowed to adhere to the wall for 6 hours in a 37° C., 5% CO2 incubator. […] After the cells adhered to the wall, the stimulant LPS (final concentration: 10 μg/ml) and the gradient-diluted compounds were added. A corresponding stimulation control and a cell control (without stimulation) were set up. After the end of the culture, the cell culture supernatants were collected, and the levels of TNF-α, IL-1β and IL-6 were measured by ELISA.

In data set [4] the test system is mouse whole spleen lymphocytes. Kind of data set: TLRs-L-stimulated proliferation of mouse whole spleen lymphocytes (3H-TdR). It is filed as cell-based. As to conditions: for IC50: Mus musculus, Lymphocyte, 48 h. The method, then: as §1
A suspension of mouse spleen lymphocytes was inoculated into a 96-well plate at […], and the stimulant TLR4-L (final concentration: 10 μg/ml), TLR7-L (final concentration: 5 μg/ml) or TLR9-L (final concentration: 1 μM) and compounds diluted with the above concentration gradients were added. A corresponding stimulation control and a cell control (without stimulation) were set up. The cells were cultured in a 37° C., 5% CO2 incubator for 48 hours. Eight hours before the end of culture, ^3H-TdR was added, and the culture continued until the end of the experiment. The cells were collected onto glass fiber membranes using a cell collector. 5 ml scintillation fluid was added, and the values of radioactive counts per minute were read on a Beta counter (2450 Microplate Counter, PerkinElmer).

Structures can show the parent of a compound that is named as a salt. Where two headings read alike, the source gives them in different places.

For orientation: IC50 means the point on the concentration scale where inhibition reaches its midpoint. One may read the CC50 as the concentration that lowers cell viability or growth by half. A higher CC50 goes with lower toxicity to the cells. Turning to `CC(C)(C)NCc1cc(Nc2ccnc3cc(Cl)ccc23)c2c(c1O)CCCC2.O=P(O)(O)O.O=P(O)(O)O` [Naphthoquine Phosphate, Naphthoquine phosphate], the IC50 in data set [1] (Mus musculus, Lymphocyte) came out at 0.41 µM; in the data set with IgM (stimulant TLR4-L 10 μg/ml) it was 0.845 µM; with IgM (stimulant TLR9-L 1 μM) it was 2.03 µM; in the data set on IL-1β, 1.59 µM; in data set [4] (stimulant TLR4-L 10 μg/ml), 0.129 µM; in data set [4] (stimulant TLR7-L 5 μg/ml) it was 1.05 µM. Moreover, the IC50 in data set [4] (stimulant TLR9-L 1 μM) is 0.218 µM. The “effect on ConA-induced T cell activation and proliferation” value in data set [1] (in words) is given as “significant inhibitory activity”. For the same molecule, the CC50 at 48 h stood at 8.73 µM in data set [2] and 1.45 µM in data set [3]. For the same molecule, the “production of LPS-induced IL-1β” value in the data set on IL-1β was “significantly inhibited”. The “proliferation and cytokine and antibody secretion mediated by specific TLRs-L” value in data set [4] (mouse whole spleen lymphocytes, in words) is “significantly inhibited”.

As to `CCN(CCO)CCCC(C)Nc1ccnc2cc(Cl)ccc12` (stereo not drawn) [Hydroxychloroquine Sulfate, hydroxychloroquine sulfate], the IC50 in data set [1] (listed as Hydroxychloroquine Sulfate (Zhongxi Sunve)) is 17 µM; in data set [1] (Mus musculus, Lymphocyte), 17.1 µM; in the data set with IgM (stimulant TLR4-L 10 μg/ml), 25.3 µM; in the data set on IgM (stimulant TLR7-L 5 μg/ml), 19.2 µM; in the data set with IgM (stimulant TLR9-L 1 μM), 2.51 µM; with IL-1β, 3.5 µM. The results for the IC50 in data set [4] (stimulant TLR4-L 10 μg/ml), in data set [4] (stimulant TLR7-L 5 μg/ml) and in data set [4] (stimulant TLR9-L 1 μM) were 6.61 µM, 18.9 µM and 8.79 µM, respectively. The values for the CC50 at 48 h in data set [2] and in data set [3] were 24.4 µM and 25.2 µM, respectively. The “production of LPS-induced IL-1β” value with IL-1β is “significantly inhibited”.
